Measured values reported in US10537549B2, “Dihydroisoxazole compound for use in controlling sea lice” (Elanco Tiergesundheit AG, priority 2016, dated 2020).

Tests used:
[1] = test system: Lepeophtheirus Salmonis at Copepodid Stage; assay: Activity in vitro against Lepeophtheirus salmonis at copepodid stage; conditions: 1 hour contact, then 48 h in untreated sea water
Description: Stir a mixture of 3-[(5S)-5-(3,4,5-trichlorophenyl)-5-(trifluoromethyl)-4H-isoxazol-3-yl]-4,5,6,7-tetrahydro-2-benzothiophene-1-carboxylic acid (15.00 g, 30.08 mmol), 2-amino-N-prop-2-ynyl-acetamide (4.90 g, 33.09 mmol, HCl), 1-[bis(dimethylamino)methylene]-1H-1,2,3-triazolo[4,5-b]pyridinium 3-oxid hexafluorophosphate (13.72 g, 36.10 mmol) and N,N-diisopropylethylamine (11.66 g, 90.24 mmol) in dichloromethane (500 mL) at 25° C. for 12 hours. Use thin layer chromatography (petroleum ether:ethyl acetate=3:1, Rf=0.30) to show the reaction progress. Dilute the mixture in water (500 mL) and extract with dichloromethane (500 mL×3). Wash the organic layer with brine (500 mL), dry over sodium sulfate, filter and concentrate under reduced pressure to dryness. […]

[2] = test system: Lepeophtheirus Salmonis (copepodids, MERL resistant strain IoA-01) on Atlantic Salmon; assay: Activity in vivo against Lepeophtheirus salmonis on Atlantic Salmon using in-feed application; conditions: in-feed 5 mg/kg/day for 7 days
Description: Activity In Vivo Against Lepeophtheirus Salmonis on Atlantic Salmon Using in-Feed Application
60 Salmon (Atlantic Salmon, S. salar) of average weight 306.5 g are treated with medicated pellets containing the compound of Example 1 (test compound) at a dose of 5 mg/kg/day during 7 consecutive days. The medicated pellets are prepared by dry coating commercially available fish feed pellets with pre-mix containing the test compound to reach a content of […] test compound in the fish feed, sealing with 1% fish oil and administering at a 1% feeding rate. The treatment is carried out in sea water. After treatment, the fish are challenged with copepodids (the MERL resistant strain IoA-01) on 35, 100 and 150 days post-treatment. During the study the water temperature varies between 7 and 10° C. Fish weight and sea louse numbers are assessed 42, 107 and 157 days post-treatment. Counts are conducted on 30 fish at each sampling occasion.
Efficacy is determined by comparison with a negative control (placebo) group.
Efficacy is calculated using the formula: % Efficacy=100−(100×mean of treatment group/mean of control).
All fish are anaesthetized with 2-phenoxy-ethanol and examined for louse settlement under a dissecting microscope. After counting, fish are returned to the tanks.

C#CCNC(=O)CNC(=O)c1sc(C2=NO[C@@](c3cc(Cl)c(Cl)c(Cl)c3)(C(F)(F)F)C2)c2c1CCCC2 [Example 1, N-[2-oxo-2-(prop-2-ynylamino)ethyl]-3-[(5S)-5-(3,4,5-trichlorophenyl)-5-(trifluoromethyl)-4H-isoxazol-3-yl]-4,5,6,7-tetrahydro-2-benzothiophene-1-carboxamide]
efficacy (no copepodid moves over a period of 80 seconds) ([1]; 0.5 ng/ml sea water): 100% | minimal effective dose (MED): dose showing 100% efficacy ([1]; serial dilution): ≤ 0.5 ng/ml sea water | % Efficacy vs placebo group (sea louse counts) ([2]; challenge 35 days post treatment (counts at 42 days)): 100% | % Efficacy vs placebo group (sea louse counts) ([2]; challenge 100 days post treatment (counts at 107 days)): 100% | % Efficacy vs placebo group (sea louse counts) ([2]; challenge 150 days post treatment (counts at 157 days)): 100%
